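Interpolation was linear, between the two tested concentrations surrounding the appropriate level; five concentrations were tested over 48 hours in 96-well plates. GI50 marks 50% less growth. The concentration for full growth arrest is given as TGI.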
Key:
Test in all cases: NCI tumour cell line growth inhibition, 48 h; in the data active = GI50 below about 0.43 µM; inactive = the rest
786-0 renal = tested on: 786-0 renal
A498 renal = tested on: A498 renal
A549 NSCLC = tested on: A549 NSCLC
ACHN renal = tested on: ACHN renal
BT-549 breast = tested on: BT-549 breast
CAKI-1 renal = tested on: CAKI-1 renal
CCRF-CEM leukemia = tested on: CCRF-CEM leukemia
COLO 205 colon = tested on: COLO 205 colon
DU-145 prostate = tested on: DU-145 prostate
EKVX NSCLC = tested on: EKVX NSCLC
HCC-2998 colon = tested on: HCC-2998 colon
HCT-116 colon = tested on: HCT-116 colon
HCT-15 colon = tested on: HCT-15 colon
HL-60(TB) leukemia = tested on: HL-60(TB) leukemia
HOP-62 NSCLC = tested on: HOP-62 NSCLC
HOP-92 NSCLC = tested on: HOP-92 NSCLC
HS 578T breast = tested on: HS 578T breast
HT29 colon = tested on: HT29 colon
IGROV1 ovarian = tested on: IGROV1 ovarian
K-562 leukemia = tested on: K-562 leukemia
KM12 colon = tested on: KM12 colon
LOX IMVI melanoma = tested on: LOX IMVI melanoma
M14 melanoma = tested on: M14 melanoma
MALME-3M melanoma = tested on: MALME-3M melanoma
MCF7 breast = tested on: MCF7 breast
MDA-MB-231 breast = tested on: MDA-MB-231 breast
MDA-MB-435 = tested on: MDA-MB-435
MOLT-4 leukemia = tested on: MOLT-4 leukemia
NCI-H226 lung = tested on: NCI-H226 lung
NCI-H23 lung = tested on: NCI-H23 lung
NCI-H460 lung = tested on: NCI-H460 lung
NCI-H522 lung = tested on: NCI-H522 lung
NCI/ADR-RES ovarian = tested on: NCI/ADR-RES ovarian
OVCAR-3 ovarian = tested on: OVCAR-3 ovarian
OVCAR-4 ovarian = tested on: OVCAR-4 ovarian
OVCAR-5 ovarian = tested on: OVCAR-5 ovarian
OVCAR-8 ovarian = tested on: OVCAR-8 ovarian
PC-3 prostate = tested on: PC-3 prostate
RPMI-8226 leukemia = tested on: RPMI-8226 leukemia
RXF 393 renal = tested on: RXF 393 renal
SF-268 CNS = tested on: SF-268 CNS
SF-295 CNS = tested on: SF-295 CNS
SF-539 CNS = tested on: SF-539 CNS
SK-MEL-2 melanoma = tested on: SK-MEL-2 melanoma
SK-MEL-28 melanoma = tested on: SK-MEL-28 melanoma
SK-MEL-5 melanoma = tested on: SK-MEL-5 melanoma
SK-OV-3 ovarian = tested on: SK-OV-3 ovarian
SN12C renal = tested on: SN12C renal
SNB-19 CNS = tested on: SNB-19 CNS
SNB-75 CNS = tested on: SNB-75 CNS
SR leukemia = tested on: SR leukemia
SW-620 colon = tested on: SW-620 colon
T-47D breast = tested on: T-47D breast
TK-10 renal = tested on: TK-10 renal
U251 CNS = tested on: U251 CNS
UACC-257 melanoma = tested on: UACC-257 melanoma
UACC-62 melanoma = tested on: UACC-62 melanoma
UO-31 renal = tested on: UO-31 renal

CCC(=O)O[C@H]1CC[C@H]2[C@@H]3CC[C@H]4CC(=O)[C@H](C)C[C@]4(C)[C@H]3CC[C@]12C
> 66.1 µM: TGI (MCF7 breast)
92.7 µM: TGI (UACC-257 melanoma)
> 84.1 µM: TGI (OVCAR-3 ovarian)
inactive: GI50 (786-0 renal) 43.3 µM | GI50 (A498 renal) 28 µM | GI50 (A549 NSCLC) 19.5 µM | GI50 (ACHN renal) 38 µM | GI50 (BT-549 breast) 37 µM | GI50 (CAKI-1 renal) > 41.7 µM | GI50 (CCRF-CEM leukemia) 18.8 µM | GI50 (COLO 205 colon) 28.3 µM | GI50 (DU-145 prostate) > 79.7 µM | GI50 (EKVX NSCLC) 22.1 µM | GI50 (HCC-2998 colon) 49.7 µM | GI50 (HCT-116 colon) 4.49 µM | GI50 (HCT-15 colon) 37.7 µM | GI50 (HL-60(TB) leukemia) 5.57 µM | GI50 (HOP-62 NSCLC) 37.7 µM | GI50 (HS 578T breast) 44 µM | GI50 (HT29 colon) 19.2 µM | GI50 (IGROV1 ovarian) > 60.5 µM | GI50 (K-562 leukemia) 5.51 µM | GI50 (KM12 colon) 34.6 µM | GI50 (LOX IMVI melanoma) 25.2 µM | GI50 (M14 melanoma) 48.1 µM | GI50 (MALME-3M melanoma) 45.7 µM | GI50 (MCF7 breast) 23.9 µM | GI50 (MDA-MB-231 breast) > 90.8 µM | GI50 (MDA-MB-435) 48.7 µM | GI50 (MOLT-4 leukemia) 9.11 µM | GI50 (NCI-H226 lung) > 96.2 µM | GI50 (NCI-H23 lung) 43.6 µM | GI50 (NCI-H460 lung) 13 µM | GI50 (NCI-H522 lung) 38.4 µM | GI50 (NCI/ADR-RES ovarian) 38.3 µM | GI50 (OVCAR-3 ovarian) 31.2 µM | GI50 (OVCAR-4 ovarian) > 79.1 µM | GI50 (OVCAR-5 ovarian) 74.8 µM | GI50 (OVCAR-8 ovarian) 43.1 µM | GI50 (PC-3 prostate) 10.5 µM | GI50 (RPMI-8226 leukemia) 2.52 µM | GI50 (RXF 393 renal) 30.5 µM | GI50 (SF-268 CNS) > 75.7 µM | GI50 (SF-295 CNS) 20.9 µM | GI50 (SF-539 CNS) > 83.5 µM | GI50 (SK-MEL-2 melanoma) 32 µM | GI50 (SK-MEL-28 melanoma) > 88.7 µM | GI50 (SK-MEL-5 melanoma) 5.89 µM | GI50 (SK-OV-3 ovarian) > 81.7 µM | GI50 (SN12C renal) > 85.2 µM | GI50 (SNB-19 CNS) > 100 µM | GI50 (SNB-75 CNS) > 100 µM | GI50 (SR leukemia) 3.21 µM | GI50 (SW-620 colon) 31.9 µM | GI50 (T-47D breast) 26 µM | GI50 (TK-10 renal) 43.7 µM | GI50 (U251 CNS) 34 µM | GI50 (UACC-257 melanoma) 20.8 µM | GI50 (UACC-62 melanoma) 13.9 µM | GI50 (UO-31 renal) 24.5 µM
13 µM: TGI (RPMI-8226 leukemia)
> 59.5 µM: TGI (K-562 leukemia)
21.8 µM: TGI (SR leukemia)
63 µM: TGI (HOP-92 NSCLC)
> 100 µM: TGI (786-0 renal) | TGI (A498 renal) | TGI (ACHN renal) | TGI (BT-549 breast) | TGI (CAKI-1 renal) | TGI (CCRF-CEM leukemia) | TGI (COLO 205 colon) | TGI (DU-145 prostate) | TGI (EKVX NSCLC) | TGI (HCC-2998 colon) | TGI (HCT-15 colon) | TGI (HOP-62 NSCLC) | TGI (HS 578T breast) | TGI (HT29 colon) | TGI (IGROV1 ovarian) | TGI (KM12 colon) | TGI (LOX IMVI melanoma) | TGI (M14 melanoma) | TGI (MALME-3M melanoma) | TGI (MDA-MB-231 breast) | TGI (MDA-MB-435) | TGI (NCI-H226 lung) | TGI (NCI-H23 lung) | TGI (NCI-H522 lung) | TGI (NCI/ADR-RES ovarian) | TGI (OVCAR-4 ovarian) | TGI (OVCAR-5 ovarian) | TGI (OVCAR-8 ovarian) | TGI (PC-3 prostate) | TGI (RXF 393 renal) | TGI (SF-268 CNS) | TGI (SF-539 CNS) | TGI (SK-MEL-2 melanoma) | TGI (SK-MEL-28 melanoma) | TGI (SK-OV-3 ovarian) | TGI (SN12C renal) | TGI (SNB-19 CNS) | TGI (SNB-75 CNS) | TGI (SW-620 colon) | TGI (T-47D breast) | TGI (TK-10 renal) | TGI (U251 CNS) | TGI (UACC-62 melanoma) | TGI (UO-31 renal)
> 57.5 µM: TGI (A549 NSCLC)
> 60.9 µM: TGI (SK-MEL-5 melanoma)
> 42.6 µM: TGI (HCT-116 colon)
> 78 µM: TGI (SF-295 CNS)
97.4 µM: TGI (NCI-H460 lung)
24.3 µM: TGI (HL-60(TB) leukemia)
> 85.6 µM: TGI (MOLT-4 leukemia)
